Assay results: publication doi:10.1101/2025.07.08.663703, “Recruitment of Mre11 to recombination sites during meiosis” (bioRxiv, 2025)
Ends that are not written are not given here.

Columns and labels:
Mer2 [1] = test: Co-expression NiNTA pulldown of MBP-Mre11-C49 (prey) with HisSUMO-Mer2 (bait); format: binding, S. cerevisiae; settings: co-expression in E. coli, anti-MBP elution/input signal normalized to wild type, at least seven independent samples
Source text: The vector for expression of ^MBPMre11-C49 and ^HisSUMOMer2 (pCCB1040) was based on a pET-Duet1 vector with the sequence coding for ^MBPMre11-C49 cloned within the first position (SacI site) and the sequence coding for ^HisSUMOMer2 cloned at the second position (XhoI site). The EQEK mutations and LLK mutations were introduced by PCR amplification of pCCB1040 with primers cb1561 and cb1562, and pp84 and pp85, followed by phosphorylation and self-ligation to yield plasmids pry59 and pry61, respectively.
Wild-type and mutant MBP-tagged Mre11-C49 and HisSUMO-tagged Mer2 were co-expressed in 50 mL of E. coli BL21 cultures and purified by affinity chromatography on Ni-NTA resin following a procedure similar to that described above. Briefly, cells were lysed by sonication and centrifuged at maximum speed for 30 mins at 4°C on a table-top centrifuge. A small fraction of the supernatant was collected as ‘Input’ and the remainder was incubated with 120 μL Ni-NTA resin, pre-equilibrated with wash buffer (25 mM HEPES pH 7.5, 20 mM imidazole, 0.1 mM DTT, 0.1 mM PMSF, 10% glycerol), for 1 hour on a rotating wheel at 4°C. The resin was washed twice with 2 ml in batch and five times with 2 ml on column before eluting with 250 μL of 500 mM imidazole in wash buffer. […]

Smt3 = target: T1, Smt3 (Saccharomyces cerevisiae, UniProt Q12306); test: NMR chemical shift perturbation of U-[13C,15N] Smt3 by SIM3 peptides; format: binding, yeast (S. cerevisiae); settings: [1H,15N] HSQC, 1.2 molar equivalents of peptide, 0.3 mM U-[13C,15N] Smt3, 20 mM sodium phosphate, 20 mM NaCl, pH 6.5, 10% D2O, 298 K, 800 MHz
T1 construct: 6xHis (C); made in house; host or cells: E. coli BL21 (DE3)pLysS
Method: For the production of the doubly labeled U-[^13C, ^15N] […] The purification protocol remained the same as described above.
The samples contained 0.3–0.6 mM of U-[^13C,^15N] […] All NMR spectra were acquired at 298 K on a Bruker Avance III HD 800 MHz spectrometer, equipped with a TCI cryoprobe. The NMR data were processed in TopSpin 3.6 (Bruker) or NMRPipe[70] and analyzed in CCPNMR[71]. Assignments of Smt3 backbone amide resonances were taken from literature[72] and verified by 3D HNCACB, HN(CO)CACB, and ^15N-edited NOESY-HSQC spectra. […] The assigned ^1H, ^13C and ^15N chemical shifts of the free and bound Smt3 have been deposited in the Biological Magnetic Resonance Bank (http://www.bmrb.wisc.edu/) under the accession number 53209.
The NMR binding experiments were performed by an incremental addition of wild-type or mutant SIM peptides (1.2 mM stocks in the working buffer) to 0.3 mM samples of U-[^13C,^15N] Smt3, with the spectral changes monitored in [^1H,^15N] HSQC spectra acquired at each increment. The average chemical shift perturbations (Δδavg) were calculated as Δδavg = (ΔδX^2/50 + ΔδH^2/2)^0.5, where ΔδX and ΔδH are the chemical shift changes of the backbone amide nitrogens or methyl carbons (ΔδX) and protons (ΔδH) of Smt3 residues upon addition of 1.2 molar equivalents of SIM peptides, and n = 50 or 9 for the backbone amide and methyl groups, respectively.

[2] = tested on: mre11-ΔC49 and mre11-ΔIDR yeast strains; test: MMS and CPT sensitivity assay (spotting of serial dilutions); format: cell-based, Saccharomyces cerevisiae SK1; settings: ten-fold serial dilutions on YPD plates, two days at 30°C; for resistance of mre11-ΔC49 mutant: mre11-ΔC49 strain; for resistance of mre11-ΔIDR mutants: mre11-ΔIDR strain
Method: Following standard protocols, strains were patched on YPG plates, mated and streaked on YPD plates, and selected diploid colonies grown in liquid YPD at 30°C, 250 rpm, overnight. For meiotic synchronization, diploid cultures grown overnight in YPD were transferred to YPA (1% yeast extract, 2% peptone, 1% potassium acetate) at OD600 0.2 and grown for 12–14 hours at 30°C, 250 rpm. Once the cultures reached OD600 between 1.2–1.6, cells were washed once with prewarmed sterile water and immediately transferred to sporulation medium supplemented with amino acids (320 μL amino acid complementation media for 100 mL of sporulation media (SPM)) and were kept shaking at 30°C, 250 rpm during the entire meiotic time-course. For MMS and CPT (Sigma) sensitivity assays, serial dilutions of overnight cultures were spotted on freshly prepared YPD-MMS or YPD-CPT plates containing indicated percentage of MMS or CPT, respectively. Plates were grown for two days at 30°C. For immunofluorescence of vegetatively growing cells, overnight cultures were refreshed by diluting to OD600 0.2 and grown for 3–4 hours to reach OD600 1.2–1.4 before subjecting to MMS or MMS followed by 5% 1,6-hexanediol treatment. For 5% 1,6-hexanediol treatment, cells were first converted to spheroplasts and then treated with 5% 1,6-hexanediol for 4–5 minutes. Spheroplasts were then immediately washed, lysed, and fixed using protocol described below.

Mer2 [3] = test: In vitro colocalization of Mre11 with Mer2 condensates; format: binding, S. cerevisiae
Method: Proteins were diluted to a 10× stock of their appropriate working concentrations in their respective storage buffers. […] Unless specified otherwise, all reactions contained 400 nM ^Alexa488Mre11 or 100 nM ^eGFPMRX. A typical 20 μL binding reaction contained 2 μL protein of 10× stock of indicated concentration, 10 μL of 2× reaction buffer, and 150 ng of supercoiled pUC19 (5.7 nM). Typical reactions were assembled at 30°C for 30 mins with gentle mixing every 5 mins, unless mentioned otherwise. 5 μL was dropped onto a microscope slide and covered with a coverslip. All images were captured on a Zeiss Axio Observer with a 100×/1.4 NA oil immersion objective except for images provided in Figure 4G which were captured on Leica Stellaris DMI 8 confocal microscope with a 63x/1.2 NA water immersion objective. Images were analyzed with ImageJ using a custom-made script. In brief, 129.24 × 129.24-μm (2048 × 2048-pixel) images were thresholded to mean intensity of the background plus three times the standard deviation of the background. Masked foci were counted and the intensity inside the focus mask was integrated. Data points represent averages of at least 8–10 images per sample. Data were analyzed using Graphpad Prism 10.4.0.

[4] = tested on: MMS-induced Mre11myc foci; test: Immunofluorescence of MMS-induced Mre11myc foci in vegetative yeast, 1,6-hexanediol treatment; format: cell-based, Saccharomyces cerevisiae SK1; settings: 5% 1,6-hexanediol, 4–5 minutes, spheroplasts, vegetative cells
Method: Following standard protocols, strains were patched on YPG plates, mated and streaked on YPD plates, and selected diploid colonies grown in liquid YPD at 30°C, 250 rpm, overnight. For meiotic synchronization, diploid cultures grown overnight in YPD were transferred to YPA (1% yeast extract, 2% peptone, 1% potassium acetate) at OD600 0.2 and grown for 12–14 hours at 30°C, 250 rpm. […]
Slides were blocked with 90% FBS, 1× PBS for 1 hour at room temperature in a humid chamber and then incubated with primary antibody (mouse mAb anti-myc, 1:200 (2276S, Cell Signaling Technology), rabbit anti-phospho H2A-S129, 1:200 (ab15083, abcam)) diluted in 3% BSA, 1× PBS in a humid chamber for 2 hours at 37°C or overnight at 4°C. Slides were washed three times with 1× PBS in a Coplin jar, were incubated with secondary antibody (goat anti-mouse IgG Alexa Fluor™ Plus 488, 1:200 (A32723, Invitrogen), donkey anti-rabbit IgG Alexa Fluor™ 546, 1:200 (A10040, Invitrogen) diluted in 3% BSA, 1× PBS in a humid chamber at 37°C for 1 hour. Slides were washed in the dark three times for 5 mins with 1× PBS, mounted with Vectashield containing DAPI (Vector Labs). Images were captured on a Zeiss Axio Observer with a 100×/1.4 NA oil immersion objective and were analyzed in ImageJ.

T1 sequence (Q12306 whole entry): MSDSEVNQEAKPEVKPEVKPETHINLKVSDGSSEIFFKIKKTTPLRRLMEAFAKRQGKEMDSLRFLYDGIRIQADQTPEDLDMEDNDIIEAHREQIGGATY

Compound | interaction of Mre11-C49 and Mer2 in pulldown (anti-MBP immunoblot) (Mer2 [1]) | resistance of mre11-ΔC49 mutant [2] | resistance of mre11-ΔIDR mutants [2] | further results
Mre11-LLK: Mre11-C49 with L683, L686, and K690 mutated to alanine (SYGLLNGRKTKTKTRPAASTKTASRRGKGRASRTPKTDIAGSALAKARK; also: MBP fusion, end not given here) | strongly decreased the interaction between the two partners |  |  | 
ENDIIMVSTDE [wild-type SIM3 peptide] |  |  |  | backbone amide chemical shift perturbation of Smt3 (Smt3): induced strong backbone amide chemical shift to Smt3 residues I35, F36, F37, K38, I39 and R46
CC[C@@]1(O)C(=O)OCc2c1cc1n(c2=O)Cc2cc3ccccc3nc2-1 [camptothecin] |  | resistant | as resistant to MMS or CPT as wild-type cells | 
Mre11-C49: Mre11 C-terminal residues (644–692) (SYGLLNGRKTKTKTRPAASTKTASRRGKGRASRTPKTDILGSLLAKKRK; also: MBP fusion, end not given here) | directly binds Mer2 |  |  | localization of Mre11-C49 around Mer2 condensates (Mer2 [3]; 800 nM mScarletMre11-C49 and 200 nM eGFPMer2, 30 min): forms a halo-like structure around Mer2 condensates; independent condensate formation of Mre11-C49 (Mer2 [3]; 800 nM mScarletMre11-C49 without eGFPMer2): does not form condensates independently
COS(C)(=O)=O [MMS, methylmethanesulfonate] |  | resistant | as resistant to MMS or CPT as wild-type cells | 
OCCCCCCO [1,6-hexanediol] |  |  |  | effect on MMS-induced Mre11 foci [4]: readily dissolved MMS-induced foci
